Results reported in ChEMBL document CHEMBL1201862, “PubChem BioAssay data set” (2004).
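Five concentrations, 48 hours, 96-well plates. GI50: concentration for 50% inhibition of growth.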 Activity calls are given as the source filed them. Rule as the data show it: active = GI50 up to about 1.1 µM and inactive = higher.

How the values were obtained:
Assay in all cases: inhibition of tumour cell growth, NCI panel, 48 h
786-0 = test system: 786-0
A498 = test system: A498
A549 = test system: A549
ACHN = test system: ACHN
BT-549 = test system: BT-549
CAKI-1 = test system: CAKI-1
CCRF-CEM = test system: CCRF-CEM
COLO 205 = test system: COLO 205
EKVX = test system: EKVX
HCC 2998 = test system: HCC 2998
HCT-116 = test system: HCT-116
HCT-15 = test system: HCT-15
HL-60 = test system: HL-60
HOP-62 = test system: HOP-62
HOP-92 = test system: HOP-92
HT-29 = test system: HT-29
Hs-578T = test system: Hs-578T
IGROV-1 = test system: IGROV-1
K562 = test system: K562
KM12 = test system: KM12
LOX IMVI = test system: LOX IMVI
M14 = test system: M14
MCF7 = test system: MCF7
MDA-MB-231 = test system: MDA-MB-231
MDA-MB-435 = test system: MDA-MB-435
MDA-N = test system: MDA-N
MOLT-4 = test system: MOLT-4
Malme-3M = test system: Malme-3M
NCI-H226 = test system: NCI-H226
NCI-H23 = test system: NCI-H23
NCI-H460 = test system: NCI-H460
NCI-H522 = test system: NCI-H522
NCI/ADR-RES = test system: NCI/ADR-RES
OVCAR-3 = test system: OVCAR-3
OVCAR-4 = test system: OVCAR-4
OVCAR-5 = test system: OVCAR-5
OVCAR-8 = test system: OVCAR-8
PC-3 = test system: PC-3
RPMI-8226 = test system: RPMI-8226
RXF 393 = test system: RXF 393
SF-268 = test system: SF-268
SF-295 = test system: SF-295
SK-MEL-28 = test system: SK-MEL-28
SK-MEL-2 = test system: SK-MEL-2
SK-MEL-5 = test system: SK-MEL-5
SK-OV-3 = test system: SK-OV-3
SN12C = test system: SN12C
SNB-19 = test system: SNB-19
SNB-75 = test system: SNB-75
SR = test system: SR
SW-620 = test system: SW-620
TK-10 = test system: TK-10
U-251 = test system: U-251
UACC-257 = test system: UACC-257
UACC-62 = test system: UACC-62
UO-31 = test system: UO-31
DU-145 = test system: DU-145
SF-539 = test system: SF-539
T47D = test system: T47D

## CSc1cc(Cl)c(C)cc1S(=O)(=O)NC(=O)Nc1ccc(Cl)cc1
786-0
  GI50: 31.2 µM (inactive)
A498
  GI50: 38.2 µM (inactive)
A549
  GI50: 33.3 µM (inactive)
ACHN
  GI50: 27.8 µM (inactive)
BT-549
  GI50: 32 µM (inactive)
CAKI-1
  GI50: 41.6 µM (inactive)
CCRF-CEM
  GI50: 12.6 µM (inactive)
COLO 205
  GI50: 15.5 µM (inactive)
EKVX
  GI50: 32.7 µM (inactive)
HCC 2998
  GI50: 16 µM (inactive)
HCT-116
  GI50: 17.5 µM (inactive)
HCT-15
  GI50: 20.5 µM
HL-60
  GI50: 12.3 µM (inactive)
HOP-62
  GI50: 24.6 µM (inactive)
HOP-92
  GI50: 24.4 µM (inactive)
HT-29
  GI50: 35.2 µM (inactive)
Hs-578T
  GI50: 51.8 µM (inactive)
IGROV-1
  GI50: 39.6 µM (inactive)
K562
  GI50: 29.9 µM (inactive)
KM12
  GI50: 24.1 µM (inactive)
LOX IMVI
  GI50: 10.9 µM (inactive)
M14
  GI50: 39.9 µM (inactive)
MCF7
  GI50: 30.3 µM (inactive)
MDA-MB-231
  GI50: 29.5 µM (inactive)
MDA-MB-435
  GI50: 38.4 µM (inactive)
MDA-N
  GI50: 33.5 µM (inactive)
MOLT-4
  GI50: 16.8 µM (inactive)
Malme-3M
  GI50: 31.6 µM (inactive)
NCI-H226
  GI50: 22 µM (inactive)
NCI-H23
  GI50: 18.4 µM (inactive)
NCI-H460
  GI50: 29.1 µM (inactive)
NCI-H522
  GI50: 20.4 µM (inactive)
NCI/ADR-RES
  GI50: 25.6 µM (inactive)
OVCAR-3
  GI50: 28 µM (inactive)
OVCAR-4
  GI50: 40.1 µM (inactive)
OVCAR-5
  GI50: 45.3 µM (inactive)
OVCAR-8
  GI50: 35.6 µM (inactive)
PC-3
  GI50: 19.9 µM (inactive)
RPMI-8226
  GI50: 30.9 µM (inactive)
RXF 393
  GI50: 22.9 µM (inactive)
SF-268
  GI50: 35.9 µM (inactive)
SF-295
  GI50: 29.6 µM (inactive)
SK-MEL-28
  GI50: 46.1 µM (inactive)
SK-MEL-2
  GI50: 25.8 µM (inactive)
SK-MEL-5
  GI50: 22.2 µM (inactive)
SK-OV-3
  GI50: 38.7 µM (inactive)
SN12C
  GI50: 36.5 µM (inactive)
SNB-19
  GI50: 30.5 µM (inactive)
SNB-75
  GI50: 27.1 µM (inactive)
SR
  GI50: 21.5 µM (inactive)
SW-620
  GI50: 33.7 µM (inactive)
TK-10
  GI50: 28.5 µM (inactive)
U-251
  GI50: 36.6 µM (inactive)
UACC-257
  GI50: 28.5 µM (inactive)
UACC-62
  GI50: 0.48 µM (active)
UO-31
  GI50: 17 µM (inactive)

## CC1=C(c2ccccc2)NC(=S)C(C)C(c2ccccc2)=N1 (stereo not drawn)
786-0
  GI50: 74.5 µM (inactive)
A498
  GI50: 27.2 µM (inactive)
A549
  GI50: 40.1 µM (inactive)
ACHN
  GI50: 11.7 µM (inactive)
BT-549
  GI50: 23.7 µM (inactive)
CAKI-1
  GI50: 56.6 µM (inactive)
CCRF-CEM
  GI50: 12.1 µM (inactive)
COLO 205
  GI50: 30.9 µM (inactive)
DU-145
  GI50: 40.4 µM (inactive)
EKVX
  GI50: 42.3 µM (inactive)
HCC 2998
  GI50: 34.3 µM (inactive)
HCT-116
  GI50: 27.5 µM (inactive)
HCT-15
  GI50: 25.8 µM
HL-60
  GI50: 12.6 µM (inactive)
HOP-62
  GI50: > 100 µM (inactive)
HT-29
  GI50: 32.4 µM (inactive)
IGROV-1
  GI50: 36.9 µM (inactive)
K562
  GI50: 10.6 µM (inactive)
KM12
  GI50: 21.2 µM (inactive)
LOX IMVI
  GI50: 30 µM (inactive)
MCF7
  GI50: 27 µM (inactive)
MDA-MB-231
  GI50: > 100 µM (inactive)
MDA-MB-435
  GI50: 18.7 µM (inactive)
MDA-N
  GI50: 16.9 µM (inactive)
MOLT-4
  GI50: 15.2 µM (inactive)
Malme-3M
  GI50: 32.7 µM (inactive)
NCI-H226
  GI50: 52.4 µM (inactive)
NCI-H23
  GI50: 9.91 µM (inactive)
NCI-H460
  GI50: 34.4 µM (inactive)
NCI/ADR-RES
  GI50: 22.8 µM (inactive)
OVCAR-4
  GI50: 17.2 µM (inactive)
OVCAR-5
  GI50: > 100 µM (inactive)
OVCAR-8
  GI50: 83.4 µM (inactive)
RPMI-8226
  GI50: 15.4 µM (inactive)
RXF 393
  GI50: 21.7 µM (inactive)
SF-268
  GI50: 27.5 µM (inactive)
SF-295
  GI50: 29.1 µM (inactive)
SF-539
  GI50: 16.3 µM (inactive)
SK-MEL-28
  GI50: 38.9 µM (inactive)
SK-MEL-5
  GI50: 24.9 µM (inactive)
SK-OV-3
  GI50: > 100 µM (inactive)
SN12C
  GI50: 56.2 µM (inactive)
SNB-19
  GI50: > 100 µM (inactive)
SNB-75
  GI50: 65.6 µM (inactive)
SR
  GI50: 22 µM (inactive)
SW-620
  GI50: 44.1 µM (inactive)
T47D
  GI50: 15.8 µM (inactive)
TK-10
  GI50: 58.2 µM (inactive)
U-251
  GI50: 55.6 µM (inactive)
UACC-257
  GI50: 28.8 µM (inactive)
UACC-62
  GI50: 33.7 µM (inactive)
UO-31
  GI50: 19.6 µM (inactive)
